Tested on: DNA from fresh blood serum
Assay: Sensitivity of circulating blood DNA to DNase action, electrophoresis (Example 9)
Assay type: biochemical, volunteers
Settings: DNA processed by DNase I for 3 hours at 37° C.
Protocol: DNA from fresh blood serum (mixture of blood received from 5 volunteers ) was isolated by standard phenol-chloroform method.
Sediment of nucleic acids was washed by 70% ethanol and dissolved in tris-EDTA buffer. Spectrophotometry with wave's length 260 nm (SF-46) was used for quantification of DNA. DNA was researched by electrophoresis in 0.8% […] gel with ethidium bromide staining. One part of received DNA was processed by DNase I for 3 hours at 37° C. After electrophoretic separation of processed and not processed DNA it was found out that: […]

DNase
DNA band after electrophoresis: disappeared completely

Reference: patent US20080004561A1, “Method for Treating Oncological, Virulent and Somatic Diseases, Method for Controlling Treatment Efficiency, Pharmaceutical Agents and Composition for Carrying Out Said Treatment” (priority 2005, published 2008)
